A short description of data set [1]: Thermal stability of malonic acid (decarboxylation to acetic acid). It counts as physicochemical.
The nature of data set [2]: Malonic acid solubility in water at various temperatures. It counts as physicochemical. As to conditions: 65° C.

`O=C(O)CC(=O)O` [malonic acid, propanedioic acid]: the “temperature at which malonic acid decarboxylates to form acetic acid” value in data set [1] is “approximately 80 °C”. Also, the “temperature at which malonic acid begins to rapidly decompose” value in data set [1] (under acidic conditions) was “about 80 °C”. Also, the “solubility limit of malonic acid” value in data set [2] turned out to be 76 % wt/wt.

The values are drawn from patent publication US11326191B2 (LYGOS, INC., priority 2016, dated 2022).
